# Results reported in patent US9562057B2, “(Thieno[2,3-b][1,5]benzoxazepin-4-yl)piperazin-1-yl compounds as dual activity H1 inverse agonists/5-HT2A antagonists” (Eli Lilly and Company, priority 2013, dated 2017).
# Structures can show the parent of a compound that is named as a salt.
# Assays:
# Adrenergic alpha2C = Adrenergic alpha2C (Homo sapiens, UniProt P18825); experiment: Adrenergic alpha2C binding
# Description: (§1) Further, the compounds of the invention may be tested in binding assays and functional activity assays by well known methods for other physiologically important receptors such as, but not limited to, the hERG channel, other serotonin receptors (specifically 5-HT1B and 5-HT1D receptors, lack of agonist activity at 5-HT2B receptors, 5-HT2C, 5-HT5, 5-HT6, and 5-HT7 receptors), dopaminergic receptors (specifically D1, D2, and D3), GABAA receptors, adrenergic receptors and monoamine transporters.
# native GABAA receptors = experiment: GABAA antagonism using native receptors in primary neuronal cultures (FLIPR calcium flux); format: cell-based; conditions: against 10 μM GABA, rat cortical embryonic neurons
# Protocol: Activity of compounds on native GABAA receptors is evaluated by monitoring calcium fluxes using a 96 well format FLIPR® system (Fluorometric Imaging Plate Reader (FLIPR®, Molecular Devices). Briefly, cortical embryonic neurons are dissociated from E18 rat embryos and plated at optimum density into black-walled, transparent bottom poly-D-lysine coated 96-well FLIPR® plates. After loading the cells with a calcium sensitive dye (Fluo4-AM, Molecular Devices), the cells are bathed in a solution containing low chloride (chloride replaced by gluconate). Under these conditions activation of GABAA receptors causes an efflux of chloride ions (in the direction of the chemical gradient), which results in membrane depolarization and consequently activation of voltage gated calcium channels (VGCCs). Calcium influx through VGCCs is recorded and analysed offline using the FLIPR® system. For a pharmacological validation of the assay, concentration response curves (CRC) are recorded for the standard agonist (GABA) and standard antagonist (Gabazine). […]
# The antagonist effects of compounds are quantified using 10-point dose response curves by comparing the peak fluorescent responses to the agonist GABA in the presence and absence of compound. […] Antagonist effects are calculated as a percent of the assay window. […]
# 5-HT2B [1] = biological target: T1, 5-HT2B (Homo sapiens, UniProt P41595); experiment: 5-HT2B antagonist functional activity; format: biochemical; conditions: antagonist mode
# Description: as §1
# Adrenergic alpha2A = Adrenergic alpha2A (Homo sapiens, UniProt P08913); experiment: Adrenergic alpha2A binding
# Description: as §1
# 5-HT2B [2] = biological target: T1, 5-HT2B; experiment: 5-HT2B binding
# Description: as §1
# 5-HT2B [3] = biological target: T1, 5-HT2B; experiment: 5-HT2B agonist functional activity; format: biochemical; conditions: agonist mode
# Description: as §1
# 5-HT7 = 5-HT7 (Homo sapiens, UniProt P34969); experiment: 5-HT7 binding
# Description: as §1
# Dopamine Transporter = Dopamine Transporter (Homo sapiens, UniProt Q01959); experiment: Dopamine transporter binding
# Description: as §1
# Adrenergic alpha1B = Adrenergic alpha1B (Homo sapiens, UniProt P35368); experiment: Adrenergic alpha1B binding
# Description: as §1
# Dopamine D3 = Dopamine D3 (Homo sapiens, UniProt P35462); experiment: Dopamine D3 binding
# Description: as §1
# 5-HT5 = 5-HT5 (Homo sapiens, UniProt P47898); experiment: 5-HT5 binding
# Description: as §1
# [4] = biological target: T2, recombinant 5-HT2C receptor (human) (Homo sapiens, UniProt P28335); experiment: 5-HT2C competition binding assay ([125I]-(±)DOI, SPA)
# T2 construct: expressed in transfected cells; host or cells: AV-12
# Protocol: [^125I]-(±)DOI binding experiments are carried out in SPA 96-well format. Membranes used in this assay are prepared from AV-12 cells stably expressing recombinant 5-HT2C receptor (human). The incubation is initiated by the addition of a mixture of WGA PVT SPA beads (0.5 mg/well, Perkin Elmer (MA, USA), RPNQ0001) and 2.5 μg membranes to assay buffer (50 mM Tris-HCl, 10 mM MgCl2, 0.5 mM EDTA, 10 μM pargyline, 0.1% ascorbic acid, pH7.4) containing 0.2 nM [[^125I]-(±)DOI and varying concentrations of the test compound (10 point concentration response curves). Non-specific binding is determined in the presence of 20 μM 1-(1-naphthyl) piperazine. Samples are incubated for 4 hr. at room temperature (22° C.) and then read in a Microbeta® Trilux.
# Binding data analysis Curves are evaluated using a 4-parameter logistic nonlinear equation to obtain the concentration of competitor causing 50% inhibition of radioligand binding (IC50). Equilibrium dissociation constants (Ki) are calculated according to the equation Ki=IC50/(1+L/Kd), where L equals the concentration of radioligand used in the experiment and Kd equals the equilibrium dissociation constant of the radioligand for the receptor, determined from standard saturation analysis or homologous competition experiments. […]
# 5-HT1D = 5-HT1D (Homo sapiens, UniProt P28221); experiment: 5-HT1D binding
# Description: as §1
# Dopamine D2 = Dopamine D2 (Homo sapiens, UniProt P14416); experiment: Dopamine D2 binding
# Description: as §1
# Norepinephrine Transport = Norepinephrine Transport (Homo sapiens, UniProt P23975); experiment: Norepinephrine transporter binding
# Description: as §1
# T1 sequence (P41595 whole entry, species assumed): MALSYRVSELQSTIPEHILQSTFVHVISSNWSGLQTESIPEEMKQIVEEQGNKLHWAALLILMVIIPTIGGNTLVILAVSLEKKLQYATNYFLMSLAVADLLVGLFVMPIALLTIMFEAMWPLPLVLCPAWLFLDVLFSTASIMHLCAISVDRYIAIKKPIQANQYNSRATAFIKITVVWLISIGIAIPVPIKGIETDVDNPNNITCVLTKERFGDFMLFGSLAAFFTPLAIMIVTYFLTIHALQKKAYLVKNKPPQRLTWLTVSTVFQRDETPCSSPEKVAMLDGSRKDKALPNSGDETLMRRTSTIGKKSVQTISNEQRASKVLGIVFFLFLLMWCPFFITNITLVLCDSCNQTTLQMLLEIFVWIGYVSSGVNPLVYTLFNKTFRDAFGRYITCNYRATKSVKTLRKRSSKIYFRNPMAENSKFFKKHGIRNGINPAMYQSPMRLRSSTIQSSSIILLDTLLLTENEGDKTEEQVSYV
# Dopamine Transporter, sequence (Q01959 whole entry): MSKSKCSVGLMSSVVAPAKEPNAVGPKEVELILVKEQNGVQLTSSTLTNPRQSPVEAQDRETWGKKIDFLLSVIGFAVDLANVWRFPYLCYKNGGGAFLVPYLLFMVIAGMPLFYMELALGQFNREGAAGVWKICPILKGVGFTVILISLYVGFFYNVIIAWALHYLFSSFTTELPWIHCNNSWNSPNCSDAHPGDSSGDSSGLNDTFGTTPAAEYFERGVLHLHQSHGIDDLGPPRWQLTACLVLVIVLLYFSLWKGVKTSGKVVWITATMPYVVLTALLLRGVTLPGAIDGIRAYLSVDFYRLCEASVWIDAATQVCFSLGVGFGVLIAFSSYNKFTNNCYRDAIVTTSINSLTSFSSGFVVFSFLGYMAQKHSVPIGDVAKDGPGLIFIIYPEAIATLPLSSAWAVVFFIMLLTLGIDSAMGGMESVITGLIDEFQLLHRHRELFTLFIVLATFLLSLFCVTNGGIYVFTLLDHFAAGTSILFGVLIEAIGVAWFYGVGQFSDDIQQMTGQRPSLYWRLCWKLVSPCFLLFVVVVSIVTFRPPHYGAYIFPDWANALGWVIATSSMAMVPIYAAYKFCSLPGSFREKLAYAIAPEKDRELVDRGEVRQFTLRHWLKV
# T2 sequence (P28335 33-458): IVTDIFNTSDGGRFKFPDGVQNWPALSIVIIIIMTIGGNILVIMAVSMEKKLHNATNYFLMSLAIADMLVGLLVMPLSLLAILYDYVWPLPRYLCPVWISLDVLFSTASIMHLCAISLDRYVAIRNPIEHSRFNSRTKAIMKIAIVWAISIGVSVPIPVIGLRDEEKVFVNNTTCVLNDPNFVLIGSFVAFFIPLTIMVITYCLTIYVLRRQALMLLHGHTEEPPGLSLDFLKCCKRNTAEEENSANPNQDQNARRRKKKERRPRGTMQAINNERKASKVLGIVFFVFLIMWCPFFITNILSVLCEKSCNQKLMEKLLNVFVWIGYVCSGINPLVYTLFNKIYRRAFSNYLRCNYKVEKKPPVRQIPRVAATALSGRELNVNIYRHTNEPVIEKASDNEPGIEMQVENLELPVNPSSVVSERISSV
# Adrenergic alpha1B, sequence (P35368 whole entry): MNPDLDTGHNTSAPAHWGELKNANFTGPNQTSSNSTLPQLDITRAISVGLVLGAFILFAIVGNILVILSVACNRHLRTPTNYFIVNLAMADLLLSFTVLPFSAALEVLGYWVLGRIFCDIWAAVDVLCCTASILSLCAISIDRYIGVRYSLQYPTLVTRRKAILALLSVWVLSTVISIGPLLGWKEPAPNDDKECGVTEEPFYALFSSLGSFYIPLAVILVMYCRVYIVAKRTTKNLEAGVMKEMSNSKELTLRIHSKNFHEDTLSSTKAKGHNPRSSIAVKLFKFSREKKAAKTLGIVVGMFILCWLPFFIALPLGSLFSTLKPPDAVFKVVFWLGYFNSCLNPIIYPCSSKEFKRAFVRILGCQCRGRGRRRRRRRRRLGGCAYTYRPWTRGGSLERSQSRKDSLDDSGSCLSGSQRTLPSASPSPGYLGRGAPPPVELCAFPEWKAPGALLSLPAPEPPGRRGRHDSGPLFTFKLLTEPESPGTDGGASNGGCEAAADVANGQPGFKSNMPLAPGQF
# 5-HT1D, sequence (P28221 whole entry, species assumed): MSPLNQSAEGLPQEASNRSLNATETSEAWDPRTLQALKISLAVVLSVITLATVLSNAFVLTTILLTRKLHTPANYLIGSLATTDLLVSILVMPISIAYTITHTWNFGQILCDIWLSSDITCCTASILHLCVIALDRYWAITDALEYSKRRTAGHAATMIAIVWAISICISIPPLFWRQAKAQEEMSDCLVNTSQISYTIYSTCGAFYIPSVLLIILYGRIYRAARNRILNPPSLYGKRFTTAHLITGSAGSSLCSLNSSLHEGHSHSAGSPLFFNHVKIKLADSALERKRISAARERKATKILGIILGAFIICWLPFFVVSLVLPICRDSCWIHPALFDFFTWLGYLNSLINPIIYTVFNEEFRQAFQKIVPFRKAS
# Dopamine D2, sequence (P14416 whole entry): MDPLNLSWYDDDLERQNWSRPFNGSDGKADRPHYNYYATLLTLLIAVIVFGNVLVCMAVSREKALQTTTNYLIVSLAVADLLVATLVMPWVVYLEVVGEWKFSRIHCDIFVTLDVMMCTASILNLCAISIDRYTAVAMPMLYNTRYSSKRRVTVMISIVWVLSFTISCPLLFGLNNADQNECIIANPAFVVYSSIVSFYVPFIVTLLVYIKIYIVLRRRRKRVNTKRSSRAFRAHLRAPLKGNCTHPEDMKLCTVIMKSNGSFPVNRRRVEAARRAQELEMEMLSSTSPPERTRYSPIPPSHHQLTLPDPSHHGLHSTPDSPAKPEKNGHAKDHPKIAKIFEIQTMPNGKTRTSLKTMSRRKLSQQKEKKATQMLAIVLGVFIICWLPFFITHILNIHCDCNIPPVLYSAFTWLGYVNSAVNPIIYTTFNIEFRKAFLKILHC
# Adrenergic alpha2A, sequence (P08913 whole entry): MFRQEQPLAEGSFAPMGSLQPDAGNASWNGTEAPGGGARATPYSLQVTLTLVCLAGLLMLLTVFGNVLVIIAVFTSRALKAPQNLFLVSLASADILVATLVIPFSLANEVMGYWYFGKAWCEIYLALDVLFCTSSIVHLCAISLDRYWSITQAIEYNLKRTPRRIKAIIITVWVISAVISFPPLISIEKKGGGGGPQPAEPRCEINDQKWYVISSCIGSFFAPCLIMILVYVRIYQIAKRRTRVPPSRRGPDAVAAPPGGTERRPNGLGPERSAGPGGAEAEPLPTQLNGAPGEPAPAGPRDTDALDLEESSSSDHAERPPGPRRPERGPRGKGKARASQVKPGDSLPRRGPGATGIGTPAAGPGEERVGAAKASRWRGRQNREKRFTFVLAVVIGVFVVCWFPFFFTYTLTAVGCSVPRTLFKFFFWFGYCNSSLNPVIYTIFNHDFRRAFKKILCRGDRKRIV
# Adrenergic alpha2C, sequence (P18825 whole entry): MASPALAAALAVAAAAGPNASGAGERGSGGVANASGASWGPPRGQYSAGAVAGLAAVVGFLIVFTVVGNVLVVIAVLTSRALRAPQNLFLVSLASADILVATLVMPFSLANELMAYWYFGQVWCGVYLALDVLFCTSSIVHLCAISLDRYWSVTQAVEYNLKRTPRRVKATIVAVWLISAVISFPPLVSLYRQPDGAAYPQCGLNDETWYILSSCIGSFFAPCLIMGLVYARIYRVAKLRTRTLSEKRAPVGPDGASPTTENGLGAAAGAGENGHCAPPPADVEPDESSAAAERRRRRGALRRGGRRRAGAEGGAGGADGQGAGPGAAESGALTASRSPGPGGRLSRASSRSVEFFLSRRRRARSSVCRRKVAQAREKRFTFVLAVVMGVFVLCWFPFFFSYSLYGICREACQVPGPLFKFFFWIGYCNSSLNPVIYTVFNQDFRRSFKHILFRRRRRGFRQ
# Dopamine D3, sequence (P35462 whole entry): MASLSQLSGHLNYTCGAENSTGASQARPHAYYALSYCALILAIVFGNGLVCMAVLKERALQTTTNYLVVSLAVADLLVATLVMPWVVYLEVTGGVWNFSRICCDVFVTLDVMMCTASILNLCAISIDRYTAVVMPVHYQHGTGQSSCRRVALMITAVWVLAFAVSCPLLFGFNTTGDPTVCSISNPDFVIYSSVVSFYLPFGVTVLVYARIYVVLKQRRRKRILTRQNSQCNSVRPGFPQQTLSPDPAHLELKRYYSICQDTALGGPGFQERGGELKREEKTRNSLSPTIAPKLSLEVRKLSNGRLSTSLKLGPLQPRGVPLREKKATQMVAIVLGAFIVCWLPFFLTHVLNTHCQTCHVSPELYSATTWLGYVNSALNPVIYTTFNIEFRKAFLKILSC
# Norepinephrine Transport, sequence (P23975 whole entry): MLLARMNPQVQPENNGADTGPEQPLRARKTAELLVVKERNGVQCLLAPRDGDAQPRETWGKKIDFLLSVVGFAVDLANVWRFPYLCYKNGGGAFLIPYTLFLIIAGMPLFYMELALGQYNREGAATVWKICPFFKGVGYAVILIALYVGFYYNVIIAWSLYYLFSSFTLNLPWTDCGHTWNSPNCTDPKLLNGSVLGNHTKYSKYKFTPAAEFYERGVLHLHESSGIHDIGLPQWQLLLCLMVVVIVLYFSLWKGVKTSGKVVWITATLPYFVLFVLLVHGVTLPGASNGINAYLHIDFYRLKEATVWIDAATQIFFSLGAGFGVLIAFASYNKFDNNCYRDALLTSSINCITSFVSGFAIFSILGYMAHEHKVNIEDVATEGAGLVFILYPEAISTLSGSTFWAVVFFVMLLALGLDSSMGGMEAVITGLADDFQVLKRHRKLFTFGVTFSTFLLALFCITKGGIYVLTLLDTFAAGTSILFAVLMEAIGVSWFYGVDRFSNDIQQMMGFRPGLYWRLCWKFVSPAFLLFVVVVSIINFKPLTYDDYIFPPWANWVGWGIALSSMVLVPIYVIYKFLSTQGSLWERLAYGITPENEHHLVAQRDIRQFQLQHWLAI
smiles,measurement,setting,value
"Cc1ccc2c(c1)Oc1sc(C3CC3)cc1C(N1CCN(CC(C)(C)C(=O)O)CC1)=N2 [Example 2, 3-[4-(2-Cyclopropyl-8-methyl-thieno[2,3-b][1,5]benzoxazepin-4-yl)piperazin-1-yl]-2,2-dimethyl-propanoic acid dihydrochloride]",Ki,Adrenergic alpha2C,1.38 µM
same,IC50,native GABAA receptors,> 100 µM
same,Kb,5-HT2B [1],0.0934 µM
same,Ki,Adrenergic alpha2A,5.92 µM
same,Ki,5-HT2B [2],0.118 µM
same,EC50,5-HT2B [3],> 10 µM
same,Ki,5-HT7,> 2.06 µM
same,Ki,Dopamine Transporter,> 0.867 µM
same,Ki,Adrenergic alpha1B,> 15.5 µM
same,Ki,Dopamine D3,> 6.28 µM
same,Ki,5-HT5,3.48 µM
same,Ki,[4],0.493 µM
same,Ki,5-HT1D,> 3.98 µM
same,Ki,Dopamine D2,2.32 µM
same,Ki,Norepinephrine Transport,> 0.671 µM
